Row | SMILES | melting point
1 | COc1cccc(CNC(=O)c2c[nH]c3c(c2=O)CCCC3)c1 | 210 to 212 °C
2 | COc1ccccc1CNC(=O)c1c[nH]c2c(c1=O)CCC2 | 243 to 244 °C
3 | O=C(NCc1ccccc1F)c1c[nH]c2c(c1=O)CCCC2 | 206 to 208 °C
4 | COc1ccnc(NC(=O)c2c[nH]c3c(c2=O)CCCC3)c1 | 312 °C (dec.)
5 | Cc1ccc(CNC(=O)c2c[nH]c3c(c2=O)CCCC3)cc1 | 270 to 273 °C
6 | O=C(Nc1cccc(F)c1)c1c[nH]c2c(c1=O)CCCC2 | 319 to 320 °C
7 | O=C(Nc1cccnc1)c1c[nH]c2c(c1=O)CCCC2 | 308 °C (dec.)
8 | O=C(Nc1ccc(F)cc1F)c1c[nH]c2c(c1=O)CCC2 | 328 °C (dec.)
9 | O=C(Nc1cccs1)c1c[nH]c2c(c1=O)CCC2 | 210 °C (dec.)
10 | O=C(Nc1ccc(F)cc1)c1c[nH]c2c(c1=O)CCCC2 | 324 to 326 °C
11 | O=C(Nc1ccccc1)c1c[nH]c2c(c1=O)CCC2 | 295 to 296 °C
12 | Cc1csc(NC(=O)c2c[nH]c3c(c2=O)CCC3)n1 | 304 to 305 °C
13 | O=C(NCc1ccccc1)c1c[nH]c2c(c1=O)CCCC2 | 257 to 259 °C
14 | O=C(Nc1ccsc1)c1c[nH]c2c(c1=O)CCCC2 | 321 to 324 °C
15 | COc1ccc(CNC(=O)c2c[nH]c3c(c2=O)CCC3)cc1 | 240 to 241 °C
16 | O=C(Nc1nccs1)c1c[nH]c2c(c1=O)CCCCC2 | 301 °C (dec.)
17 | CC(C)Oc1ccc(CNC(=O)c2c[nH]c3c(c2=O)CCC3)c(F)c1 | 214 °C (dec.)
18 | O=C(NCc1cccc(O)c1)c1c[nH]c2c(c1=O)CCCC2 | 133 to 136 °C
19 | COc1ccc(NC(=O)c2c[nH]c3c(c2=O)CCCC3)cc1 | 287 to 290 °C
20 | O=C(Nc1ccccc1)c1c[nH]c2c(c1=O)CCCC2 | 299 to 300 °C

Row | SMILES | melting point
21 | O=C(Nc1nccs1)c1c[nH]c2c(c1=O)CCCC2 | 260 °C (dec.)
22 | COc1ccc(CNC(=O)c2c[nH]c3c(c2=O)CCCC3)cc1 | 241 to 244 °C
23 | O=C(NCc1ccc(F)cc1)c1c[nH]c2c(c1=O)CCCC2 | 278 to 280 °C
24 | CC(C)Oc1ccc(CNC(=O)c2c[nH]c3c(c2=O)CCCC3)c(F)c1 | 197 to 200 °C
25 | CCOc1ccc(CNC(=O)c2c[nH]c3c(c2=O)CCC3)c(F)c1 | 217 to 219 °C
26 | COc1ccc(NC(=O)c2c[nH]c3c(c2=O)CCC3)cc1 | 330 to 332 °C
27 | O=C(Nc1c(F)cccc1F)c1c[nH]c2c(c1=O)CCC2 | 297 °C (dec.)
28 | O=C(NCc1ccccc1)c1c[nH]c2c(c1=O)CCC2 | 149 to 150 °C
29 | O=C(Nc1ccccn1)c1c[nH]c2c(c1=O)CCC2 | 294 to 295 °C
30 | O=C(NCc1c(F)cccc1F)c1c[nH]c2c(c1=O)CCC2 | 294 to 295 °C
31 | CCOc1ccc(CNC(=O)c2c[nH]c3c(c2=O)CCCC3)c(F)c1 | 178 to 181 °C
32 | O=C(NCc1cccc(F)c1)c1c[nH]c2c(c1=O)CCCC2 | 267 to 270 °C
33 | O=C(Nc1ccccc1Cl)c1c[nH]c2c(c1=O)CCCC2 | 339 to 341 °C
34 | COc1cccc(NC(=O)c2c[nH]c3c(c2=O)CCC3)c1 | 320 °C (dec.)
35 | O=C(Nc1ccc(OCCO)cc1)c1c[nH]c2c(c1=O)CCC2 | 220 to 222 °C
36 | O=C(NCc1cccs1)c1c[nH]c2c(c1=O)CCCC2 | 245 to 248 °C
37 | COc1ccc(CNC(=O)c2c[nH]c3c(c2=O)CCCC3)c(F)c1 | 257 to 259 °C
38 | O=C(Nc1ccccc1F)c1c[nH]c2c(c1=O)CCCC2 | 241 to 244 °C
39 | O=C(NCc1ccccc1)c1c[nH]c2c(c1=O)CCCCC2 | 224 to 226 °C
40 | Cc1cccc(CNC(=O)c2c[nH]c3c(c2=O)CCCC3)c1 | 242 to 245 °C

Row | SMILES | melting point
41 | O=C(Nc1cccc(F)c1)c1c[nH]c2c(c1=O)CCC2 | 340 °C (dec.)
42 | O=C(Nc1cccs1)c1c[nH]c2c(c1=O)CCCC2 | 306 °C (dec.)
43 | Cc1csc(NC(=O)c2c[nH]c3c(c2=O)CCCC3)n1 | 350 to 352 °C
44 | CCCCNC(=O)c1c[nH]c2c(c1=O)CCCCC2 | 138 to 143 °C
45 | O=C(NCc1ccccc1F)c1c[nH]c2c(c1=O)CCC2 | 259 to 261 °C
46 | COc1ccc(CNC(=O)c2c[nH]c3c(c2=O)CCCCC3)cc1 | 203 to 205 °C
47 | O=C(NCc1cccc(Cl)c1)c1c[nH]c2c(c1=O)CCCC2 | 247 to 249 °C
48 | COc1ccccc1CNC(=O)c1c[nH]c2c(c1=O)CCCC2 | 217 to 219 °C
49 | O=C(Nc1ccccc1F)c1c[nH]c2c(c1=O)CCC2 | 330 °C (dec.)
50 | O=C(Nc1c(F)cccc1F)c1c[nH]c2c(c1=O)CCCC2 | 278 to 280 °C
51 | CCCOc1ccc(CNC(=O)c2c[nH]c3c(c2=O)CCC3)c(F)c1 | 209 to 211 °C
52 | COc1cccc(CNC(=O)c2c[nH]c3c(c2=O)CCC3)c1 | 204 to 205 °C
53 | COc1ccc(NC(=O)c2c[nH]c3c(c2=O)CCCCC3)cc1 | 240 to 242 °C
54 | O=C(NCc1ccc(F)cc1)c1c[nH]c2c(c1=O)CCCCC2 | 219 to 222 °C
55 | O=C(NCc1ccc(Cl)cc1)c1c[nH]c2c(c1=O)CCCC2 | 283 to 285 °C
56 | O=C(Nc1nccs1)c1c[nH]c2c(c1=O)CCC2 | 305 °C (dec.)
57 | COc1cccc(NC(=O)c2c[nH]c3c(c2=O)CCCC3)c1 | 275 to 280 °C
58 | CCOc1ccc(CNC(=O)c2c[nH]c3c(c2=O)CCCC3)cc1 | 241 to 243 °C
59 | O=C(NCc1ccc2c(c1)OCO2)c1c[nH]c2c(c1=O)CCCC2 | 263 to 265 °C

— patent US6448259B1 (dated 2002)
